According to patent publication US20150246141A1, “DIAGNOSTIC AGENTS WITH ENHANCED SENSITIVITY/SPECIFICITY” (BEN-GURION UNIVERSITY OF THE NEGEV RESEARCH AND DEVELOPMENT …, priority 2012, published 2015):

Assays:
[1] = test system: LS-174T human colorectal adenocarcinoma; test: Murine orthotopic colorectal tumor model LS-174T, intraluminal instillation, imaging of excised colon and organs; assay type: in vivo, female athymic nude mice; conditions: polymer applied intraluminally
Protocol: The murine orthotopic colorectal tumor model LS-174T human colorectal adenocarcinoma cells (3×10^7 cells) were injected (600 μL) into the descending colonic wall of 13 anesthetized, female athymic nude mice, after an over night fast. […] Histopathological examination was performed on paraffin fixed colonic tissue specimens, after an H&E stain and verified that the carcinoma infiltrated within the mucosa, submucosa, and muscular layer
The mice were sacrificed 3 hrs post treatment, their colons exteriorized, separated, cut open, spread on a transparent film with the mucosal aspects upwards, and imaged by the Odyssey® Infrared Imaging System (Li-Cor Biosciences, Lincoln, Nebr., USA.) with excitation wavelength of 780 nm and emission wavelength of 800 nm.

LS174T tumors = test: Intraluminal (intracolonic) administration to mice bearing rectal LS174T tumors, NIR imaging of excised colon; assay type: in vivo, female athymic nude mice
Protocol: […] Then, the mice were sacrificed and the colons were removed. Each colon was spread on a clear film, and imaging was performed using the Odyssey® Infrared Imaging System (Li-Cor Biosciences, Lincoln, Nebr., USA.), with excitation wavelength of 780 nm and emission wavelength of 800 nm Results:

HT29 tumors = test: Intraluminal administration to mouse HT-29 tumor models, NIR imaging; assay type: in vivo, female athymic nude mice
Protocol: 20 min later the colon was washed extensively with PBS and then were allowed to recover for 3 h. Then, the mice were sacrificed and the colons were removed. Each colon was spread on a clear film, and imaging was performed using the Odyssey® Infrared Imaging System (Li-Cor Biosciences, Lincoln, Nebr., USA.), with excitation wavelength of 780 nm and emission wavelength of 800 nm Results:
FIGS. 4C and 4D provide results of similarly treated animals, 2 hours post-administration.

[2] = test system: cancerous colorectal tissue; test: In situ labeling of surgically excised human colorectal cancer tissue specimens; conditions: PBS, 0.2 mg/ml; 20 minutes incubation, washed three times
Protocol: Polymer solution was dropped onto fresh surgical tissue specimens that were received 15 minutes after surgical excision. After 20 minutes of incubation with the polymeric probe, tissues were washed three times with a large volume of PBS. Tissues were then imaged immediately using the Odyssey® Infrared Imaging System (Li-Cor Biosciences, Lincoln, Nebr., USA.) with excitation wavelength of 780 nm and emission wavelength of 800 nm.

[3] = immediately post administration of 0.1 mg/ml (200 μg)

HPMA copolymer bearing IR783-S-Ph-COOH [P-(AP-IR783)]
accumulation in cancerous tissue [1]: Selective accumulation
background staining in control mice without tumors (LS174T tumors; 40 μg per mouse (0.2 mg/ml), images taken at 4 hours following washing): very little background staining
staining in samples taken from mice having tumors (LS174T tumors; 40 μg per mouse (0.2 mg/ml), tumors verified by pathologic evaluation): clear staining was evident
tumor associated-vasculature staining (LS174T tumors; intraluminal application): staining was evident
accumulation in cancerous tissue (LS174T tumors; polymer applied intraluminally, LS174T tumor model): Selective accumulation
staining of region 4 (no tumors macroscopically; tumors in the submucosa) (HT29 tumors; [3]): stained intensely
staining of surface exposed regions (boxes 2, 3) (HT29 tumors; [3]): stained intensely
accumulation in cancerous tissue (HT29 tumors; polymer applied intraluminally, HT-29 tumor model): Selective accumulation
binding to near healthy tissue [2]: very low binding
staining at cancerous region in the tissue (polyp and tumor) [2]: markedly intense staining
